The target of data set [1] is T1, N-acylethanolamine-hydrolyzing acid amidase (Homo sapiens, UniProt Q02083).
T1 sequence (Q02083 whole entry): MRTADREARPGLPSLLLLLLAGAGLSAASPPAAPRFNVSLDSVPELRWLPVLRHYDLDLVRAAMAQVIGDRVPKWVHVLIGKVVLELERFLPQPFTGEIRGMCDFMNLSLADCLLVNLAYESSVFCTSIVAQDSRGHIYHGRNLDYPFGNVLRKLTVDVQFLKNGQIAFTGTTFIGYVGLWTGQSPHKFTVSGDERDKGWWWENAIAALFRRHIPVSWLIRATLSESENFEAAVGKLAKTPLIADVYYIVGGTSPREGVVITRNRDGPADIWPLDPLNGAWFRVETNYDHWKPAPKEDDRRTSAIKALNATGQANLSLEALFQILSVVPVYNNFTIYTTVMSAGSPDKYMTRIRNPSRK
Put plainly: Inhibition of human NAAA expressed in HEK293 cell membranes using [3H]-N-palmitoylethanolamine as substrate after 30 mins by liquid scintillation counting assay.

The nature of data set [2]: Blood brain barrier permeability in human. It is filed as ADME. Particulars: read-out: BPR.
Data set [3] addresses T1, N-acylethanolamine-hydrolyzing acid amidase. The data set is described as follows: Inhibition of human NAAA.
Data set [4] shares this target. The data set is described as follows: Inhibition of NAAA (unknown origin).

Bounds are passed on as bounds.

Consider four compounds from ChEMBL document CHEMBL4610086, “N-Acylethanolamine Acid Amidase (NAAA): Structure, Function, and Inhibition” (J Med Chem, 2020).

For orientation: IC50 means the concentration at which inhibition is half-maximal. A lower IC50 goes with higher potency.

Regarding `CCCCCCCCCCCCCCCC(=O)OC1CCCC1` [CYCLOPENTYL PALMITATE], in data set [1], the IC50 is over 30 µM.

As to `CCS(=O)(=O)c1ccccc1C(=O)N1CCN(c2nc3ccc(F)cc3s2)C[C@@H]1C`, the Kp in data set [2] came out at 0.2.

`CCCCc1ccc(O[C@@H]2C[C@H]3CC[C@@H](C2)N3CS(=O)(=O)c2c(C)n[nH]c2C)cc1` showed an IC50 in data set [3] of 0.023 µM.

Compound `O=C(CCc1ccc(-c2ccccc2)cc1)N1CCCC1` came in with an IC50 in data set [4] of 3.1 µM.
